Measurements published in patent US20140221424A1, “PHARMACEUTICAL COMPOSITIONS FOR USE IN THE TREATMENT OF CYSTIC FIBROSIS” (Vertex Pharmaceuticals Incorporated, priority 2013, published 2014).
Values after ≈ are worked out from the molar mass of the structure shown. Where two headings read alike, the source gives them in different places. One block for each molecule: values may come before it.

Key:
healthy subjects = experiment: Thorough QT study (ECG evaluation); format: in vivo, human; details: 150 mg and 450 mg twice daily, 72 healthy subjects
Description: The highest repeated dose was 450 mg (in a tablet formulation) every 12 hours for 4.5 days (9 doses) in a trial evaluating the effect of KALYDECO™ on ECGs in healthy subjects.
The effect of multiple doses of ivacaftor 150 mg and 450 mg twice daily on QTc interval was evaluated in a randomized, placebo- and active-controlled (moxifloxacin 400 mg) four-period crossover thorough QT study in 72 healthy subjects.

G551D-CFTR protein [1] = target: T1, G551D-CFTR protein (Homo sapiens, UniProt P13569, G551D); experiment: Single channel patch clamp, membrane patches from rodent cells expressing G551D-CFTR; format: biochemical; set-up: expressed in transfected cells; details: versus untreated cells, after addition of PICA and ATP
CYP3A = experiment: Drug interaction studies: other drugs on ivacaftor exposure; format: in vivo, human
Description: Drug interaction studies were performed with KALYDECO™ and other drugs likely to be co-administered or drugs commonly used as probes for pharmacokinetic interaction studies [see Drug Interactions (subsection 7 of section V)].
(§1) The data obtained for KALYDECO™ without co-administration of inducers or inhibitors are used as reference.

pregnant rats = experiment: Placental transfer in pregnant rats; format: in vivo, rat
Excerpt: (§2) There are no adequate and well-controlled studies of KALYDECO™ in pregnant women. […] Because animal reproduction studies are not always predictive of human response, KALYDECO™ should be used during pregnancy only if clearly needed.

rabbits = experiment: Teratogenicity in rabbits; format: in vivo, rabbit; details: maternal dose 100 mg/kg/day, approximately 12 times the MRHD
Excerpt: as §2

lactating female rats = experiment: Excretion into milk of lactating rats; format: in vivo, rat
Description: Excretion of ivacaftor into human milk is probable. There are no human studies that have investigated the effects of ivacaftor on breast-fed infants. Caution should be exercised when KALYDECO™ is administered to a nursing person.

G551D-CFTR protein [2] = target: T1, G551D-CFTR protein; experiment: Transepithelial current (IT) in human bronchial epithelial cells expressing G551D-CFTR; format: cell-based; set-up: endogenous in cells; host or cells: human bronchial epithelial cells
Solubility in water = format: physicochemical; details: practically insoluble
Excerpt: Ivacaftor is a white to off-white powder that is practically insoluble in water (<0.05 microgram/mL).

pregnant rabbits = experiment: Placental transfer in pregnant rabbits; format: in vivo, rabbit
Excerpt: as §2

juvenile rats = experiment: Juvenile rat toxicology; format: in vivo; details: juvenile rats dosed postnatal day 7-35, 10 mg/kg/day and higher
Excerpt: This finding has not been observed in older animals.

human red blood cells = experiment: Binding to red blood cells; format: in vitro ADME
[3] = Pharmacokinetics in moderate hepatic impairment; format: in vivo, human
Description: Therefore, a reduced KALYDECO™ dose of 150 mg once daily is recommended for patients with moderate hepatic impairment. The impact of mild hepatic impairment (Child-Pugh Class A) on pharmacokinetics of ivacaftor has not been studied, but the increase in ivacaftor AUC0-∞ is expected to be less than two-fold. Therefore, no dose adjustment is necessary for patients with mild hepatic impairment. The impact of severe hepatic impairment (Child-Pugh Class C, score 10-15) on pharmacokinetics of ivacaftor has not been studied. […] When benefits are expected to outweigh the risks, KALYDECO™ should be used with caution in patients with severe hepatic impairment at a dose of 150 mg given once daily or less frequently.
Therefore, a reduced dose of 150 mg once daily is recommended in patients with moderate hepatic impairment.

G551D-CFTR protein [4] = target: T1, G551D-CFTR protein; experiment: CFTR-mediated transepithelial current (IT) in rodent cells expressing G551D-CFTR; format: cell-based; set-up: expressed in transfected cells
[5] = test system: Chinese hamster ovary cells; experiment: In vitro chromosomal aberration assay; format: cell-based; details: CHO cells
Excerpt: (§3) Ivacaftor was negative for genotoxicity in the following assays: Ames test for bacterial gene mutation, in vitro chromosomal aberration assay in Chinese hamster ovary cells, and in vivo mouse micronucleus test.

Plasma protein binding = format: in vitro ADME; details: human
Excerpt: Ivacaftor is approximately 99% bound to plasma proteins, primarily to alpha 1-acid glycoprotein and albumin.

[6] = test system: CYP3A enzymes (i.e., CYP3A4 and CYP3A5); experiment: Metabolism by CYP3A (in vitro and clinical studies); format: in vitro ADME, human; details: for substrate of CYP3A enzymes (CYP3A4 and CYP3A5): in vitro studies
Excerpt: (§4) Ivacaftor is extensively metabolized in humans. […] M1 and M6 are the two major metabolites of ivacaftor in humans. M1 has approximately one-sixth the potency of ivacaftor and is considered pharmacologically active. M6 has less than one-fiftieth the potency of ivacaftor and is not considered pharmacologically active.
as §1

[7] = Elimination / human PK study with radioactivity; format: in vivo; details: for share of the total dose eliminated as this metabolite: po
Excerpt: (§5) Following oral administration, the majority of ivacaftor (87.8%) is eliminated in the feces after metabolic conversion. The major metabolites M1 and M6 accounted for approximately 65% of the total dose eliminated with 22% as M1 and 43% as M6. There was negligible urinary excretion of ivacaftor as unchanged parent. […] The mean apparent clearance (CL/F) of ivacaftor was similar for healthy subjects and patients with CF.
KALYDECO™ has not been studied in patients with mild, moderate or severe renal impairment (creatinine clearance less than or equal to 30 mL/min) or in patients with end stage renal disease. No dose adjustments are recommended for mild and moderate renal impairment patients because of minimal elimination of ivacaftor and its metabolites in urine (only 6.6% of total radioactivity was recovered in the urine in a human PK study); however, caution is recommended when administering KALYDECO™ to patients with severe renal impairment or end stage renal disease.

mice = experiment: Two-year carcinogenicity study in mice; format: in vivo, mouse; details: oral doses up to 200 mg/kg/day
Description: (§6) Two-year studies were conducted in mice and rats to assess carcinogenic potential of KALYDECO™.

mouse = experiment: In vivo mouse micronucleus test
Excerpt: as §3

[8] = test system: patients with a G551D mutation; experiment: Population PK/PD analysis (Emax model) of FEV1 versus ivacaftor exposure; set-up: species or system human; details: pooled Phase 2a and Phase 3 data
Excerpt: Therefore, median Cmin at EC90 was chosen as the target PK parameter for efficacy.

rats [9] = experiment: Teratogenicity in rats; format: in vivo, rat; details: maternal dose 200 mg/kg/day, approximately 6 times the MRHD
Excerpt: as §2

male and female rats = experiment: Fertility and reproductive performance in rats; format: in vivo, rat
Description: Ivacaftor impaired fertility and reproductive performance indices in male and female rats at 200 mg/kg/day (approximately 5 and 6 times, respectively, the MRHD based on summed AUCs of ivacaftor and its metabolites). […] These impairments of fertility and reproductive performance in male and female rats at 200 mg/kg/day were attributed to severe toxicity.

bacterial gene mutation = experiment: Ames test for bacterial gene mutation; format: cell-based
Excerpt: as §3

[10] = Clinical pharmacokinetics after oral administration; format: in vivo, human
Description: After every 12 hour dosing, steady-state plasma concentrations of ivacaftor were reached by days 3 to 5, with an accumulation ratio ranging from 2.2 to 2.9.
The exposure of ivacaftor increased approximately 2- to 4-fold when given with food containing fat. Therefore, KALYDECO™ should be administered with fat-containing food. Examples of fat-containing foods include eggs, butter, peanut butter, and cheese pizza. The median (range) tmax is approximately 4.0 (3.0; 6.0) hours in the fed state.
The mean apparent volume of distribution (Vz/F) of ivacaftor after a single dose of 275 mg of KALYDECO™ in the fed state was similar for healthy subjects and patients with CF. After oral administration of 150 mg every 12 hours for 7 days to healthy volunteers in a fed state, the mean (±SD) for apparent volume of distribution was 353 (122) L.
as §5

rats [11] = experiment: Two-year carcinogenicity study in rats; format: in vivo, rat; details: oral doses up to 50 mg/kg/day
Description: as §6

[12] = Potency of metabolites relative to ivacaftor
Excerpt: as §4

[13] = moderately impaired hepatic function (Child-Pugh Class B, score 7 to 9)
[14] = rats, 200 mg/kg/day, dams dosed prior to and during early pregnancy

T1 sequence (P13569 whole entry G551D): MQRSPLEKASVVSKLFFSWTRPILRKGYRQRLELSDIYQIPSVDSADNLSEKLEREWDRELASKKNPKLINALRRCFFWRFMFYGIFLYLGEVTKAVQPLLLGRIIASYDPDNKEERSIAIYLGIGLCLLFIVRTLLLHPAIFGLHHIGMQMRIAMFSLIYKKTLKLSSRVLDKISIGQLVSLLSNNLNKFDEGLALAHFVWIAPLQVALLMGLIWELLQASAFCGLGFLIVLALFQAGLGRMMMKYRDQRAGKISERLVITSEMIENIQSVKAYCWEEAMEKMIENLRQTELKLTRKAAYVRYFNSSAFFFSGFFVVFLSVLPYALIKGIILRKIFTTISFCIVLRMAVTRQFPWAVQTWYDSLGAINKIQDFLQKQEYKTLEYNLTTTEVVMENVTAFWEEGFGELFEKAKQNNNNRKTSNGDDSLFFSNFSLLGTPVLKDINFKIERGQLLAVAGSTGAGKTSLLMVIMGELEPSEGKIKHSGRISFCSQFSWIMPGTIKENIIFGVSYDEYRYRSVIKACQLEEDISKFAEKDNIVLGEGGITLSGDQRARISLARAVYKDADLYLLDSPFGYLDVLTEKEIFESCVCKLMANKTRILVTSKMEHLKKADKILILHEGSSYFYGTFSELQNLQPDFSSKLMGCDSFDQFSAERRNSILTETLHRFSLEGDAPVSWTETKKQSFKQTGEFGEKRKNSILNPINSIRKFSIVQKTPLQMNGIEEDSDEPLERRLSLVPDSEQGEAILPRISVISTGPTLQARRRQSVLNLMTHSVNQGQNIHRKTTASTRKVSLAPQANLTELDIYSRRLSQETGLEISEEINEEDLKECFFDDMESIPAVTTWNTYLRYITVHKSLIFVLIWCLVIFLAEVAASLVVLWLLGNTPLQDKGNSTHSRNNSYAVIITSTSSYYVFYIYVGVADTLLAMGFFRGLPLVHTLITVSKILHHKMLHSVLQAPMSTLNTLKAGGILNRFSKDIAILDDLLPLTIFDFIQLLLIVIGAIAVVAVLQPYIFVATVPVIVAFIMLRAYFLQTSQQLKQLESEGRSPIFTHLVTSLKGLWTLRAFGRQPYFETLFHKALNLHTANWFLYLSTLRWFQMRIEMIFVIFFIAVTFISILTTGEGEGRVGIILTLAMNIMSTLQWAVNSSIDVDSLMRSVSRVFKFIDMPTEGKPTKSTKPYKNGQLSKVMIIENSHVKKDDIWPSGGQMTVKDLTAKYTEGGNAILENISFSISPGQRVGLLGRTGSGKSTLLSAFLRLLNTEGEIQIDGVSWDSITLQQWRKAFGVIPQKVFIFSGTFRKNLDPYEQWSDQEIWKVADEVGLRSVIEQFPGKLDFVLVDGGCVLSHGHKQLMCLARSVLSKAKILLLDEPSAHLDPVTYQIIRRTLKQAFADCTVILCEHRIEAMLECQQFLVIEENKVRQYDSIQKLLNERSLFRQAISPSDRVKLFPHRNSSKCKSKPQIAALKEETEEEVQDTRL

Structure (SMILES): CC(C)(C)c1cc(C(C)(C)C)c(NC(=O)c2c[nH]c3ccccc3c2=O)cc1O [Ivacaftor, N-[2,4-bis(1,1-dimethylethyl)-5-hydroxyphenyl]-1,4-dihydro-4-oxoquinoline-3-carboxamide]
upper bound of the one-sided 95% confidence interval for the largest placebo adjusted, baseline-corrected QTcF (healthy subjects): below 10 ms
increase of open probability of G551D-CFTR protein (G551D-CFTR protein [1]): 6 fold
increase of ivacaftor exposure (CYP3A; co-administration with fluconazole, a moderate inhibitor of CYP3A): 3 fold
increase of ivacaftor exposure (AUC) (CYP3A; co-administration with ketoconazole, a strong CYP3A inhibitor): 8.5 fold
decrease of ivacaftor exposure (AUC) (CYP3A; co-administration with rifampin, a strong CYP3A inducer): approximately 9 fold
placental transfer (pregnant rats): observed
teratogenic effects (rabbits): not teratogenic
excretion into milk (lactating female rats): excreted into the milk
EC50 (G551D-CFTR protein [2]): 0.236 ± 0.2 µM
increase of IT (G551D-CFTR protein [2]; human bronchial epithelial cells expressing G551D-CFTR, following addition of a cAMP agonist): 10 fold
solubility (Solubility in water): < 0.05 µg/mL
placental transfer (pregnant rabbits): observed
cataracts (juvenile rats): Cataracts were seen
binding to human red blood cells (human red blood cells): does not bind
AUC(0-inf) ([3]; human, in vivo, oral, single dose of 150 mg, moderately impaired hepatic function, read-out: AUC0-∞, mean (±SD)): 16800 ng·h/mL
Cmax ([3]; human, in vivo, oral, single dose of 150 mg, moderately impaired hepatic function, read-out: Cmax, mean (±SD)): 735 ng/mL
Cmax compared with healthy subjects matched for demographics [3, 13]: similar
increase in AUC0-∞ compared with healthy subjects matched for demographics [3, 13]: approximately two-fold
increase of IT in the absence of cAMP agonist (G551D-CFTR protein [4]): did not increase
EC50 (G551D-CFTR protein [4]; following addition of a cAMP agonist, read-out: EC50, increase of CFTR-mediated transepithelial current (IT)): 0.1 ± 0.047 µM
genotoxicity [5]: negative
fraction unbound (Plasma protein binding): ~0.01
primary route of metabolism ([6]; in vitro and clinical studies): primarily metabolized by CYP3A
substrate of CYP3A enzymes (CYP3A4 and CYP3A5) [6]: substrates
urinary excretion as unchanged parent ([7]; in vivo): negligible
total radioactivity recovered in the urine ([7]; ivacaftor and its metabolites, human PK study): 6.6%
tumorigenicity (mice): No evidence of tumorigenicity
genotoxicity (mouse): negative
EC50, FEV1 versus ivacaftor exposure, Emax model [8]: 0.045 µg/mL (≈ 0.115 µM)
EC90, FEV1 versus ivacaftor exposure, Emax model [8]: 0.405 µg/mL (≈ 1.03 µM)
teratogenic effects (rats [9]): not teratogenic
prolonged diestrus (male and female rats; female rats, 200 mg/kg/day): Increases
fertility and reproductive performance indices (male and female rats; male and female rats, 200 mg/kg/day, attributed to severe toxicity): impaired
fertility and reproductive performance indices (male and female rats; male or female rats, ≦100 mg/kg/day (approximately 3 times the MRHD)): No effects
corpora lutea, implantations, and viable embryos (male and female rats; [14]): decreased
number of females with all nonviable embryos (male and female rats; [14]): increased
genotoxicity (bacterial gene mutation): negative
apparent volume of distribution, mean (±SD) ([10]; 150 mg orally every 12 hours for 7 days, healthy volunteers, fed state): 353 (122) L
increase of exposure when given with food containing fat ([10]; human, in vivo): 2-4 fold
mean apparent clearance (CL/F), healthy subjects versus patients with CF ([10]; human, in vivo): similar
pharmacokinetics, healthy adult volunteers versus patients with CF ([10]; human, in vivo): similar
Tmax ([10]; human, in vivo, fed state, read-out: median (range) tmax): ~4 h
half-life ([10]; human, in vivo, following a single dose, read-out: apparent terminal half-life (converted)): ~12 h
AUC ([10]; human, in vivo, single 150 mg oral dose, healthy volunteers, fed state, read-out: AUC, mean (±SD)): 10600 ng·h/mL
Cmax ([10]; human, in vivo, single 150 mg oral dose, healthy volunteers, fed state, read-out: Cmax, mean (±SD)): 768 ng/mL
Tmax ([10]; human, in vivo, single 150 mg oral dose, healthy volunteers, fed state, read-out: time of peak plasma concentrations (Tmax)): ~4 h
mean apparent volume of distribution (Vz/F), healthy subjects versus patients with CF ([10]; single dose of 275 mg, fed state): similar
tumorigenicity (rats [11]): No evidence of tumorigenicity

Structure (SMILES): CC(C)(C)c1cc(C(C)(C)CO)c(O)cc1NC(=O)c1c[nH]c2ccccc2c1=O [M1, hydroxymethyl-ivacaftor]
increase of M1 exposure (CYP3A; ivacaftor co-administered with fluconazole): 1.9 fold
increase of M1 exposure (CYP3A; ivacaftor co-administered with ketoconazole): 1.7 fold
potency relative to ivacaftor [12]: approximately one-sixth
substrate of CYP3A enzymes (CYP3A4 and CYP3A5) [6]: substrates
share of the total dose eliminated as this metabolite ([7]; in vivo): 22%

share of the total dose eliminated as this metabolite ([7]; in vivo): 43%
Structure (SMILES): CC(C)(C)c1cc(C(C)(C)C(=O)O)c(O)cc1NC(=O)c1c[nH]c2ccccc2c1=O [M6]
potency relative to ivacaftor [12]: less than one-fiftieth
